In PMC7794376 (Nature Communications, 2021):
In brackets after ≈: the same amount, converted by molar mass. Several values for one entry are separate records, joined by “and”; a condition that tells them apart may be missing. Equal values may be shown once. Read-outs that look alike come from different tables or passages of the source.

Tests used:
[1] = target: human CoaB (HCoaB) (Homo sapiens, UniProt Q9HAB8); experiment: EnzChek pyrophosphate assay, HCoaB; format: biochemical; conditions: HCoaB, replicates R1-R3
[2] = target: MsmCoaBC (Mycolicibacterium smegmatis, UniProt A0QWT2); experiment: EnzChek pyrophosphate assay, CoaB activity of MsmCoaBC; format: biochemical, Mycobacterium smegmatis; conditions: for Activity: slope of absorbance at 360 nm vs time (s); for inhibition, IC50 MsmCoaBC 2b / reaction rate (slope of absorbance at 360 nm over time), IC50 MsmCoaBC 2b / remaining activity relative to control, IC50 MsmCoaBC 2b: triplicate
Description: The commercially available EnzChek pyrophosphate assay kit (E-6645) (Life Technologies) was used for this assay. […] In the assays with HCoaB an enzyme concentration of 1 µM was used instead. […] Assays were performed on either a CLARIOstar or PHERAstar microplate reader (BMG Labtech) in 96-well plates (Greiner). A substrate mixture containing the substrates and the inhibitor was pre-incubated at 25 °C for 10 min. An enzyme solution was prepared and separately pre-incubated at 25 °C for 10 min. The reaction was initiated by the addition of the substrates to the solution containing the enzyme to a final volume of 75 µL. Enzymatic activity was monitored by following the absorbance at 360 nm for 30 min (100 cycles/20 s each cycle) and only the steady-state region of the assay was used for data analysis. Assays were performed in triplicates, including a negative control (lacking PPA) and a positive control (lacking inhibitor).

[3] = target: T1, MtbCoaBC (Mycobacterium tuberculosis, UniProt P9WNZ1); experiment: High-throughput end-point pyrophosphate quantification assay (Biomol Green); format: biochemical; conditions: MtbCoaB activity; end-point, 2 µM CTP, 40 µM L-cysteine, 30 µM PPA; read-out: IC50 biomol green assay
[4] = target: T1, MtbCoaBC; experiment: Competition assays, first half of CoaB reaction (EnzChek, variable CTP or PPA); format: biochemical; conditions: for mode of inhibition: in words
[5] = target: T1, MtbCoaBC; experiment: CMP quantification assay (UPLC), second half of CoaB reaction, variable L-cysteine; format: biochemical; conditions: for uM CMP/uM protein.s-1 (rate of CMP formation): MtbCoaBC 32nM, replicates R1-R3
[6] = test system: M. tuberculosis H37Rv; experiment: MIC determination in different media; format: cell-based; conditions: Mycobacterium tuberculosis, read-out: Minimum inhibitory concentration (MIC)
[7] = test system: M. tuberculosis coaBC Tet-OFF conditional knockdown; format: cell-based, Mycobacterium tuberculosis; conditions: GAST/Fe minimal media
[8] = 0.015625 uM 2b, relative to average DMSO CT, replicates R1-R3
[9] = 0.015625 uM 2b, replicates R1-R3
[10] = 0.03125 uM 2b, relative to average DMSO CT, replicates R1-R3
[11] = 0.03125 uM 2b, replicates R1-R3
[12] = 0.0625 uM 2b, relative to average DMSO CT, replicates R1-R3
[13] = 0.25 uM 2b, relative to average DMSO CT, replicates R1-R3
[14] = 0.5 uM 2b, relative to average DMSO CT, replicates R1-R3
[15] = inhibitor concentration 1 (log 0; unit not given)
[16] = inhibitor concentration 2 (log 0.30103; unit not given)

Sequence of human CoaB (HCoaB) (Q9HAB8 whole entry): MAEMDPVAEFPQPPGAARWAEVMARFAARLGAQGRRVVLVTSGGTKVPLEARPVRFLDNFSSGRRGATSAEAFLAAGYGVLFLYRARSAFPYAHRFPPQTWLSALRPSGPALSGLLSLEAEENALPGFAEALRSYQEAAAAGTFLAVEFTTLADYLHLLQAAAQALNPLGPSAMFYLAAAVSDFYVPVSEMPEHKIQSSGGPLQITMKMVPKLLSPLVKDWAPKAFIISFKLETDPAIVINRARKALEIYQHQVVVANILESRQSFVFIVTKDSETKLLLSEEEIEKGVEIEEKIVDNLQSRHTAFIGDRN
T1 sequence (P9WNZ1 whole entry): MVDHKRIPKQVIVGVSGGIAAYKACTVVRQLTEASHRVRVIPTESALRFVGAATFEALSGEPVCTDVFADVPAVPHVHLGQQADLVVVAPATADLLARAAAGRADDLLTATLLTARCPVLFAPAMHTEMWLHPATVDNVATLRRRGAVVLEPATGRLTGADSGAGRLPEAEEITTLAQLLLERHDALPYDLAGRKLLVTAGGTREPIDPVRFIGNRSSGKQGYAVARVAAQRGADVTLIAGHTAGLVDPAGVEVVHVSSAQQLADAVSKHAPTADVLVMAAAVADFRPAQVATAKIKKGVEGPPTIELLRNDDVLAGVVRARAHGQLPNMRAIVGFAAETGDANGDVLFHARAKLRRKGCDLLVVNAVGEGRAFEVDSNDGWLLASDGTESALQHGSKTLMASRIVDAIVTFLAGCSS
Sequence of MsmCoaBC (A0QWT2 whole entry): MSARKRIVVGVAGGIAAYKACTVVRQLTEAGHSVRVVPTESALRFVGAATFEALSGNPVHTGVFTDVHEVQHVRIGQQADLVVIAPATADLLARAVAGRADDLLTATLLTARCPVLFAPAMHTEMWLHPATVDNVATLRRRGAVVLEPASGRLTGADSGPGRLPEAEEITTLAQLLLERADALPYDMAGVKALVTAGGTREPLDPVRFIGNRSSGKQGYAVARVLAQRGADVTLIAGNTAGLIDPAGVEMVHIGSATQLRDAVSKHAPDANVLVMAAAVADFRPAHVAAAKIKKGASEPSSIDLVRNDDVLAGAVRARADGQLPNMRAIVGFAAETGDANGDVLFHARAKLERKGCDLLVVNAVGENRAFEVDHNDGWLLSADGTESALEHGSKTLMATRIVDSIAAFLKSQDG

O=c1cc(-c2ccc(O)c(O)c2)oc2cc(O)c(O)cc12 [compound 2b]
activity at 50 µM ([1]; 50 uM compound, relative to average DMSO CT): 59%
Activity % ([1]; 50 uM compound, relative to average DMSO CT, 50 µM): 54.55% and 56.86%
inhibition at 50 µM ([1]; 50 uM compound): 45.5%
Inhibition % ([1]; 50 uM compound, 50 µM): 43.14% and 41.04%
activity at 100 µM ([1]; 100 uM compound, relative to average DMSO CT): 38%
Activity % ([1]; 100 uM compound, relative to average DMSO CT, 100 µM): 40.03% and 34.07%
inhibition at 100 µM ([1]; 100 uM compound): 60%
Inhibition % ([1]; 100 uM compound, 100 µM): 65.93% and 62.02%
IC50 [2]: 180 ± 20 nM
Activity % [2, 8]: 94.35% and 94.28%
activity at 0.015625 µM [2, 8]: 95.3%
Inhibition % [2, 9]: 5.72% and 4.75%
inhibition at 0.015625 µM [2, 9]: 5.65%
Activity [2, 9]: 0.0002955 and 0.0002927 and 0.0002925
Activity % [2, 10]: 88.08% and 86.2%
activity at 0.03125 µM [2, 10]: 89.5%
Inhibition % [2, 11]: 13.80% and 10.50%
inhibition at 0.03125 µM [2, 11]: 11.9%
Activity [2, 11]: 0.0002776 and 0.0002732 and 0.0002674
Activity % [2, 12]: 71.12% and 70.67%
activity at 0.0625 µM [2, 12]: 74.4%
Inhibition % ([2]; 0.0625 uM 2b, replicates R1-R3): 29.33% and 25.59%
inhibition at 0.0625 µM ([2]; 0.0625 uM 2b, replicates R1-R3): 28.9%
Activity ([2]; 0.0625 uM 2b, replicates R1-R3): 0.0002308 and 0.0002206 and 0.0002192
Activity % [2, 13]: 41.76% and 47.03%
activity at 0.25 µM [2, 13]: 45.6%
Inhibition % ([2]; 0.25 uM 2b, replicates R1-R3): 52.97% and 54.45%
inhibition at 0.25 µM ([2]; 0.25 uM 2b, replicates R1-R3): 58.2%
Activity ([2]; 0.25 uM 2b, replicates R1-R3): 0.0001413 and 0.0001296 and 0.0001459
Activity % [2, 14]: 29.05% and 29.76%
activity at 0.5 µM [2, 14]: 30.5%
Inhibition % ([2]; 0.5 uM 2b, replicates R1-R3): 70.24% and 69.54%
inhibition at 0.5 µM ([2]; 0.5 uM 2b, replicates R1-R3): 71%
Activity ([2]; 0.5 uM 2b, replicates R1-R3): 0.000094507 and 0.000090122 and 0.000092326
inhibition, IC50 MsmCoaBC 2b [2, 15]: 88.05 and 84.53 and 91.37
reaction rate (slope of absorbance at 360 nm over time), IC50 MsmCoaBC 2b [2, 15]: 0.000026783 and 0.000037077 and 0.000047977
remaining activity relative to control, IC50 MsmCoaBC 2b [2, 15]: 8.633 and 11.95 and 15.47
inhibition, IC50 MsmCoaBC 2b [2, 16]: 96.00 and 96.49 and 94.20
reaction rate (slope of absorbance at 360 nm over time), IC50 MsmCoaBC 2b [2, 16]: 0.000017982 and 0.000012403 and 0.000010882
remaining activity relative to control, IC50 MsmCoaBC 2b [2, 16]: 5.796 and 3.998 and 3.508
IC50 [3]: 100 nM
mode of inhibition ([4]; relative to CTP): mixed inhibition
mode of inhibition ([4]; relative to PPA): uncompetitive inhibition
Inibition type ([4]; variable substrate CTP): Mixed
Ki ([4]; variable substrate CTP): 93 ± 18 nM
uM CMP/uM protein.s-1 (rate of CMP formation) ([5]; 0.03125uM 2b, 31.25 uM cysteine): 0.1688 uM CMP/uM protein.s-1 and 0.1774 uM CMP/uM protein.s-1 and 0.1722 uM CMP/uM protein.s-1
uM CMP/uM protein.s-1 (rate of CMP formation) ([5]; 0.03125uM 2b, 62.5 uM cysteine): 0.2177 uM CMP/uM protein.s-1 and 0.2245 uM CMP/uM protein.s-1 and 0.2185 uM CMP/uM protein.s-1
uM CMP/uM protein.s-1 (rate of CMP formation) ([5]; 0.03125uM 2b, 250 uM cysteine): 0.2696 uM CMP/uM protein.s-1 and 0.2689 uM CMP/uM protein.s-1 and 0.2761 uM CMP/uM protein.s-1
uM CMP/uM protein.s-1 (rate of CMP formation) ([5]; 0.03125uM 2b, 500 uM cysteine): 0.3036 uM CMP/uM protein.s-1 and 0.2988 uM CMP/uM protein.s-1 and 0.3158 uM CMP/uM protein.s-1
uM CMP/uM protein.s-1 (rate of CMP formation) ([5]; 0.0625uM 2b, 31.25 uM cysteine): 0.139 uM CMP/uM protein.s-1 and 0.1432 uM CMP/uM protein.s-1 and 0.1461 uM CMP/uM protein.s-1
uM CMP/uM protein.s-1 (rate of CMP formation) ([5]; 0.0625uM 2b, 62.5 uM cysteine): 0.1762 uM CMP/uM protein.s-1 and 0.1605 uM CMP/uM protein.s-1 and 0.1802 uM CMP/uM protein.s-1
uM CMP/uM protein.s-1 (rate of CMP formation) ([5]; 0.0625uM 2b, 250 uM cysteine): 0.2128 uM CMP/uM protein.s-1 and 0.2019 uM CMP/uM protein.s-1 and 0.2135 uM CMP/uM protein.s-1
uM CMP/uM protein.s-1 (rate of CMP formation) ([5]; 0.0625uM 2b, 500 uM cysteine): 0.2223 uM CMP/uM protein.s-1 and 0.2126 uM CMP/uM protein.s-1 and 0.2324 uM CMP/uM protein.s-1
mode of inhibition ([5]; relative to L-cysteine, in words): uncompetitive inhibition
MIC ([6]; 7H9/ADC/Glycerol): > 250 µM
MIC ([6]; 7H9/Cholesterol/Tyloxapol): > 250 µM
MIC ([6]; GAST/Fe): 50 µM (≈ 14.3 µg/mL)
sensitisation on incremental silencing of CoaBC [7]: did not sensitise M. tuberculosis further
